Data from ChEMBL document CHEMBL5053549, “Discovery of Potent and Novel Dual PARP/BRD4 Inhibitors for Efficient Treatment of Pancreatic Cancer” (J Med Chem, 2021).
The source made the active and inactive calls. No cut-off for these calls is given here.

Assays:
SW1990 [1] = test: Inhibition of colony formation in human SW1990 cells at 0.5 uM after 14 days in presence of 1.5 uM Olaparib by crystal violet staining based microscopic analysis; type: functional, cell-based; settings: time 14.0 day
Mus musculus [2] = test: Toxicity in BALB/c mouse xenografted with human SW1990 cells assessed as spleen damage at 15 mg/kg, ip administered for 28 consecutive days by H and E staining based […] microscopic analysis; type: organism-based; settings: in vivo, 672 h, time 28 day
SW1990 [3] = test: Induction of apoptosis in human SW1990 cells assessed as necrotic cells at 4 uM after 4 days by Annexin V-FITC and propidium iodide staining based flow cytometry (reference value: 1.89%); type: functional; settings: time 4 day
SW1990 [4] = test: Induction of apoptosis in human SW1990 cells assessed as late apoptotic cells at 1 uM after 4 days in presence of 3 uM Olaparib by Annexin V-FITC and propidium iodide staining based flow cytometry (reference value: 6.22%); type: functional; settings: time 4 day
SW1990 [5] = test: Induction of cell cycle arrest in human SW1990 cells assessed as accumulation of cells at S phase at 4 uM incubated for 4 days by propidium iodide staining based flow cytometry (reference value: 29.32%); type: functional; settings: time 4 day
SW1990 [6] = test: Inhibition of homologous recombinant repair in human SW1990 cells assessed as reduction in Olaparib-induced BRCA1 expression at 1 uM after 4 days in presence of Olaparib by Western blot analysis; type: functional, cell-based; settings: time 4.0 day
SW1990 [7] = test: Inhibition of homologous recombinant repair in human SW1990 cells assessed as reduction in FOXM1 expression at 4 uM after 4 days by Q-PCR analysis; type: functional, cell-based; settings: time 4.0 day
SW1990 [8] = test: Inhibition of homologous recombinant repair in human SW1990 cells assessed as reduction in Rad51 expression at 4 uM after 4 days by Western blot analysis; type: functional, cell-based; settings: time 4.0 day
Mus musculus [9] = test: Inhibition of homologous recombinant repair in human SW1990 cells xenografted in BALB/c mouse assessed as increase in gammaH2AX expression at 45 mg/kg, ip after 4 days by immunohistochemical analysis; type: functional, organism-based; settings: time 4.0 day
[10] = biological target: Serine/threonine-protein kinase PLK1 (Homo sapiens, UniProt P53350); test: Inhibition of recombinant PLK1 (unknown origin) […] measured after 40 mins by ADP-glo luminescence kinase assay
[11] = biological target: Bromodomain-containing protein 2 (Homo sapiens, UniProt P25440); test: Inhibition of recombinant BRD2 BD2 (unknown origin) incubated for 120 mins by TR-FRET assay
[12] = biological target: T1, Bromodomain-containing protein 1 (Homo sapiens, UniProt O95696); test: Inhibition of recombinant BRD1 (unknown origin) incubated for 120 mins by TR-FRET assay
T1 sequence (O95696 whole entry): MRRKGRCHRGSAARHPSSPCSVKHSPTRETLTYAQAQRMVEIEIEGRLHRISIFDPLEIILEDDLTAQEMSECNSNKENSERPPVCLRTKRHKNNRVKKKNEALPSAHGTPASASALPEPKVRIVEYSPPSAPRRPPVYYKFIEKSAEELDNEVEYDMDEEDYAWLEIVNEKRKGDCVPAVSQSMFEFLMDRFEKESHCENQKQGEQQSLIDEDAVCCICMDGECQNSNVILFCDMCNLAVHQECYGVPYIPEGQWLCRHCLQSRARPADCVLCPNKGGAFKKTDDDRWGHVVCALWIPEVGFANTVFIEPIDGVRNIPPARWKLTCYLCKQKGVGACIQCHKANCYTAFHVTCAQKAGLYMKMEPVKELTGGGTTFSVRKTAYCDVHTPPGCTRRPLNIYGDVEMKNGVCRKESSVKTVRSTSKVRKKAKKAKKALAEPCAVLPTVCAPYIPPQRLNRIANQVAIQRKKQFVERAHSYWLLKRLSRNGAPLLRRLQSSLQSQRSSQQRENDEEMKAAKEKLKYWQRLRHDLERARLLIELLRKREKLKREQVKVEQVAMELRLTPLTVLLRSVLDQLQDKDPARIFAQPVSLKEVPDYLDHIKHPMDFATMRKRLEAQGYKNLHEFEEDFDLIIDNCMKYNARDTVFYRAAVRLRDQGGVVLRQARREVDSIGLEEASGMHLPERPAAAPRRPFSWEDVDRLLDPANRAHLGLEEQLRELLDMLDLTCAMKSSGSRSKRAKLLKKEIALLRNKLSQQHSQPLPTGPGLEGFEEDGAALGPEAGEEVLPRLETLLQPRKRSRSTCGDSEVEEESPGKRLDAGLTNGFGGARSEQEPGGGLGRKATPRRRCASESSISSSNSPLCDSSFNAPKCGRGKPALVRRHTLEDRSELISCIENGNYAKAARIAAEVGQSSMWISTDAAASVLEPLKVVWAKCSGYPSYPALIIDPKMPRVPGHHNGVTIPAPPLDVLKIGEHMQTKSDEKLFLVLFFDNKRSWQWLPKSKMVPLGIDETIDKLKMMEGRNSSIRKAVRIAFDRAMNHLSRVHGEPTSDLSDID

[13] = biological target: Bromodomain-containing protein 4 (Homo sapiens, UniProt O60885); test: Inhibition of BRD4 expression in human SW1990 cells at 1 uM after 4 days by Q-PCR analysis; type: cell-based; settings: time 4.0 day
Mus musculus [14] = test: Toxicity in BALB/c mouse xenografted with human SW1990 cells assessed as kidney damage at 45 mg/kg, ip administered for 28 consecutive days by H and E staining based […] microscopic analysis; type: organism-based; settings: in vivo, 672 h, time 28 day
Mus musculus [15] = test: In vivo inhibition of PARP1 expression in human […] cells xenografted in BALB/c mouse at 45 mg/kg, ip administered for 28 consecutive days by immunohistochemical analysis; type: functional, organism-based; settings: time 28.0 day
Mus musculus [16] = test: In vivo inhibition of BRD4 expression in human […] cells xenografted in BALB/c mouse at 45 mg/kg, ip administered for 28 consecutive days by Western blot analysis; type: functional, organism-based; settings: time 28.0 day
SW1990 [17] = test: Induction of cell cycle arrest in human SW1990 cells assessed as accumulation of cells at G2/M phase at 1 uM incubated for 4 days by propidium iodide staining based flow cytometry (reference value: 5.89%); type: functional; settings: time 4 day
Mus musculus [18] = test: Effect on cell cycle progression in human SW1990 cells xenografted in BALB/c mouse assessed as reduction in PLK1 expression at 45 mg/kg, ip after 4 days by Western blot analysis; type: functional, organism-based; settings: time 4.0 day
SW1990 [19] = test: Inhibition of homologous recombinant repair in human SW1990 cells assessed as reduction in BRCA1 expression at 1 to 2 uM after 4 days by Q-PCR analysis; type: functional, cell-based; settings: dose 1-2 µM, time 4.0 day
SW1990 [20] = test: Inhibition of homologous recombinant repair in human SW1990 cells assessed as increase in […] expression at 1 to 2 uM after 4 days by Western blot analysis; type: functional, cell-based; settings: dose 1-2 µM, time 4.0 day
SW1990 [21] = test: Inhibition of homologous recombinant repair in human SW1990 cells assessed as reduction in c-Myc expression at 1 to 2 uM after 4 days by Western blot analysis; type: functional, cell-based; settings: dose 1-2 µM, time 4.0 day
SW1990 [22] = test: Induction of autophagy in human SW1990 cells xenografted in BALB/c mouse assessed as increase in ATG5 expression at 45 mg/kg, ip after 4 days by Western blot analysis; type: functional, organism-based; settings: time 4.0 day
SW1990 [23] = test: Induction of autophagy in human SW1990 cells xenografted in BALB/c mouse assessed as decrease in p62 expression at 45 mg/kg, ip after 4 days by Q-PCR analysis; type: functional, organism-based; settings: time 4.0 day

Sequence of Serine/threonine-protein kinase PLK1 (P53350 whole entry): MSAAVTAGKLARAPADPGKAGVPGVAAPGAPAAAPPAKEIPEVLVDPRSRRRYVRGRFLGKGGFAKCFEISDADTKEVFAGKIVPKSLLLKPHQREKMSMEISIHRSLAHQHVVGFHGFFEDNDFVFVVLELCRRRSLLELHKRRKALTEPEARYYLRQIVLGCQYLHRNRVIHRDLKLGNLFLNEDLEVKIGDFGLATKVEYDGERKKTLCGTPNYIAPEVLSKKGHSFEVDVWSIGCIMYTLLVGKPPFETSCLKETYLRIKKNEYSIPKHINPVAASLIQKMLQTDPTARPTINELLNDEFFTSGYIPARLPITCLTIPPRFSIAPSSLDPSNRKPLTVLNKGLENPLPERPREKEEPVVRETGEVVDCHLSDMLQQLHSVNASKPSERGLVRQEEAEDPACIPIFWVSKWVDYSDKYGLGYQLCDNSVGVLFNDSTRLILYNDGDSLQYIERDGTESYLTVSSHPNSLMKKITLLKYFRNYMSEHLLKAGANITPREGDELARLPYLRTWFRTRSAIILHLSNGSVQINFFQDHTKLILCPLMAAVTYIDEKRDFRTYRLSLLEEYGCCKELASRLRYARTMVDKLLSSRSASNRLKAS
Sequence of Bromodomain-containing protein 2 (P25440 whole entry): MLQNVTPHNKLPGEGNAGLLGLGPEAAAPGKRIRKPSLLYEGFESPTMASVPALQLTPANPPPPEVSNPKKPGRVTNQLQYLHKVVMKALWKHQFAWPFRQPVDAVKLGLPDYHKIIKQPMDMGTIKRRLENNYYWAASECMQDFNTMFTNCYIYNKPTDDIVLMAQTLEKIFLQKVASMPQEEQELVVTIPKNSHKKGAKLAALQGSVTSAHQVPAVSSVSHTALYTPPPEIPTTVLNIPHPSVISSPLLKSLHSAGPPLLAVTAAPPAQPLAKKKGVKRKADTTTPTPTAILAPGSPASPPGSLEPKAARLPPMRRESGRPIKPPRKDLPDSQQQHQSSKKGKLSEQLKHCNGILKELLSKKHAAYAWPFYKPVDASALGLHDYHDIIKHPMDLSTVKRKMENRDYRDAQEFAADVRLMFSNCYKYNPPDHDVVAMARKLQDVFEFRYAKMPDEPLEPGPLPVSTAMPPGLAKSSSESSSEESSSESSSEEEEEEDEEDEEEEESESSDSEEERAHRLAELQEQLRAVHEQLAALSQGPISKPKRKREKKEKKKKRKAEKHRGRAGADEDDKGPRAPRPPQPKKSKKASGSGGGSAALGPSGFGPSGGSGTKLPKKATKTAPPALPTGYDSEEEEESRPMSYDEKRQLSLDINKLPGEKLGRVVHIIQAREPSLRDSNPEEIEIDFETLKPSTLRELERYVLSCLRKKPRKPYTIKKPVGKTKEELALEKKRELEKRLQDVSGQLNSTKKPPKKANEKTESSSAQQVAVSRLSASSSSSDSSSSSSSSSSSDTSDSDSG

Compound: Cc1sc2c(c1C)C(c1ccc(Cl)cc1)=N[C@@H](CC(=O)OC(C)(C)C)c1nnc(C)n1-2
- inhibition (SW1990 [1]): Active
- Activity (Mus musculus [2]): Non-Toxic
- Activity (SW1990 [3]): 1.23%
- Activity (SW1990 [4]): 36.2%
- Activity (SW1990 [5]): 19.43%
- inhibition (SW1990 [6]): Active
- inhibition (SW1990 [7]): Active
- inhibition (SW1990 [8]): Active

Compound: CC[C@@H]1C(=O)N(C)c2cnc(N(C)c3ccc(-c4nc5c(C(N)=O)cccc5[nH]4)cc3OC)nc2N1C1CCCC1
- inhibition (Mus musculus [9]): Active
- IC50 [10]: 2030 nM
- IC50 [11]: 168 nM
- IC50 [12]: 36500 nM
- inhibition [13]: Active
- Activity (Mus musculus [14]): Non-Toxic
- Activity (Mus musculus [15]): Active
- Activity (Mus musculus [16]): Active
- Activity (SW1990 [17]): 10.5%
- Activity (Mus musculus [18]): Active
- inhibition (SW1990 [19]): Active
- inhibition (SW1990 [20]): Active
- inhibition (SW1990 [21]): Active
- Activity (SW1990 [22]): Active
- Activity (SW1990 [23]): Active
